Where a name gives a salt, the structure may show the parent alone.
Target: recombinant human DHODH (Homo sapiens, UniProt Q02127)
Assay: Endpoint DHODH enzyme assay (coenzyme Q10, DCIP)
Assay type: biochemical
Parameters: purchased Prospecbio ENZ-642
Settings: compound at 10 µM
Procedure: In Supplementary Tables 5 and 6, endpoint assays were performed with 10 nM recombinant human DHODH (#ENZ-642, Prospecbio). The reaction mixture consisted of 624.6 µM DL-dihydroorotic acid, 66.4 µM coenzyme Q10, 66.4 µM 2,6-dichlorophenolindophenol sodium salt (DCIP) (all reagents purchased from Sigma-Aldrich) in enzyme buffer (50 mM Tris-HCl, pH 8.0, 0.1% Triton X-100, 150 mM KCl). Loss in absorbance by DCIP was measured at 595 nm after incubation at RT for 60 min.

[1] = Supplementary Table 5, 20,000 compound library
[2] = Supplementary Table 6, 30,000 compound library

Sequence of recombinant human DHODH (Q02127 31-395 limits assumed): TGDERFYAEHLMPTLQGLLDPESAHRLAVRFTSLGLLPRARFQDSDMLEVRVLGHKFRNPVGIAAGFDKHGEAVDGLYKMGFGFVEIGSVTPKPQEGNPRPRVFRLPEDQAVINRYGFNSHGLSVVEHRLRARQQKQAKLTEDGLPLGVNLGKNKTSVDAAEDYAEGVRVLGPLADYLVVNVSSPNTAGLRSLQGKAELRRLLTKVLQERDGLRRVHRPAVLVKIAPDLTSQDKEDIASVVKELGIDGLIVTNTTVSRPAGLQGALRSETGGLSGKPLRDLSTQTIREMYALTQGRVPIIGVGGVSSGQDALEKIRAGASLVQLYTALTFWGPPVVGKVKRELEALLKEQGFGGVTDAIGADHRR

With COc1ccc(-c2nc(CN3CCCC3c3ccccc3OC)c(C)o2)cc1C (stereo not shown) [compound 47870602, 2-(4-methoxy-3-methylphenyl)-4-{[2-(2-methoxyphenyl)-1-pyrrolidinyl]methyl}-5-methyl-1,3-oxazole] the “remaining DHODH activity (%) Average” value [1] was 10.68%.
In the case of O=C1C(O)=C(c2ccc(-c3ccccc3)cc2)C(=O)c2ccccc21 [compound 5248918, 2-(4-biphenylyl)-3-hydroxynaphthoquinone], the “remaining DHODH activity (%) Average” value [2] is reported as -1.54%.
For CCc1ccc(NC(=O)c2ccc([N+](=O)[O-])o2)cc1 [compound 5351720, N-(4-ethylphenyl)-5-nitro-2-furamide], the remaining activity at 10 µM [1] was 73.5%.
O=C(NN=Cc1ccc(O)cc1)c1cc(-c2ccccc2)nc2ccccc12 [compound 5347717, N'-(4-hydroxybenzylidene)-2-phenyl-4-quinolinecarbohydrazide] was tested, and the remaining activity at 10 µM [2] was 8.96%.
Molecule COc1ccccc1CC(C)NC1CCCc2c1[nH]c1ccc([N+](=O)[O-])cc21 (stereo not shown) [compound 5781453, N-[2-(2-methoxyphenyl)-1-methylethyl]-6-nitro-2,3,4,9-tetrahydro-1H-carbazol-1-amine] has a remaining activity at 10 µM [2] of 52.4%.
With CC(C)Oc1ccccc1C1CC(=O)Nc2cc3c(cc21)OCCO3 (stereo not shown) [compound 7800701, 9-(2-isopropoxyphenyl)-2,3,8,9-tetrahydro[1,4]dioxino[2,3-g]quinolin-7(6H)-one] the remaining activity at 10 µM [1] was 88.1%.
In the case of NN=C1CCCc2c1[nH]c1ccc(Br)cc21 [compound 5373779, 6-bromo-2,3,4,9-tetrahydro-1H-carbazol-1-one hydrazone], the remaining activity at 10 µM [2] is reported as 58.2%.
O=C(NN=Cc1ccc(Br)cc1)C1COc2ccccc2O1 (stereo not shown) [compound 5249701, N'-(4-bromobenzylidene)-2,3-dihydro-1,4-benzodioxine-2-carbohydrazide] showed a remaining activity at 10 µM [2] of 100%.
COc1ccccc1N1CCN(C(=O)c2ccc(Cl)c([N+](=O)[O-])c2)CC1 [compound 5276937, 1-(4-chloro-3-nitrobenzoyl)-4-(2-methoxyphenyl)piperazine] gave a remaining activity at 10 µM [2] of 97.5%.
Molecule c1ccc(OCCNc2ccc3ccccc3c2)cc1 [compound 6641022, 2-naphthyl(2-phenoxyethyl)amine] has a remaining activity at 10 µM [2] of 66%.
COc1ccc(OC)c(C(C)NC(=O)c2ccco2)c1 (stereo not shown) [compound 6912406, N-[1-(2,5-dimethoxyphenyl)ethyl]-2-furamide] gave a remaining activity at 10 µM [1] of 93.2%.
Cc1ccc(OCC(=O)NN=Cc2ccc(-c3ccc(Br)cc3)o2)cc1 [compound 5472837, N'-{[5-(4-bromophenyl)-2-furyl]methylene}-2-(4-methylphenoxy)acetohydrazide] was tested, and the remaining activity at 10 µM [2] was 98.4%.
With O=C(Nc1ccc2ccccc2c1)C12CC3CC(CC(C3)C1)C2 [compound 5135537, N-2-naphthyl-1-adamantanecarboxamide] the remaining activity at 10 µM [1] was 32%.
Nc1cccc2c1C(=O)c1cccc(NC(=O)c3ccccc3)c1C2=O [compound 5301107, N-(5-amino-9,10-dioxo-9,10-dihydro-1-anthracenyl)benzamide] was tested, and the remaining activity at 10 µM [2] was 100%.
For Cn1c2ccccc2n2c(C(O)C(Cl)(Cl)Cl)c(-c3ccccc3)nc12 (stereo not shown) [compound 5650027, 2,2,2-trichloro-1-(9-methyl-2-phenyl-9H-imidazo[1,2-a]benzimidazol-3-yl)ethanol], the remaining activity at 10 µM [2] was 68.4%.
Work on CCN(CC)c1ccc(NC(=S)NC(=O)c2cccc(C)c2OC)cc1 [compound 7578012, N-({[4-(diethylamino)phenyl]amino}carbonothioyl)-2-methoxy-3-methylbenzamide] yielded a remaining activity at 10 µM [1] of 79%.
In the case of COc1cccc(-c2noc(-c3ccc(N4CCCCC4)nc3)n2)c1OC [compound 57999135, 5-[3-(2,3-dimethoxyphenyl)-1,2,4-oxadiazol-5-yl]-2-(1-piperidinyl)pyridine], the remaining activity at 10 µM [1] is reported as 16.7%.
In the case of CC1CCC(NC2CCCc3c2[nH]c2ccc([N+](=O)[O-])cc32)C1 (stereo not shown) [compound 5781446, N-(3-methylcyclopentyl)-6-nitro-2,3,4,9-tetrahydro-1H-carbazol-1-amine], the remaining activity at 10 µM [2] is reported as 60.5%.
Molecule COc1ccc2c(c1)c(C=Cc1nc3ccccc3c(=O)[nH]1)c(C)n2C [compound 5705453, 2-[2-(5-methoxy-1,2-dimethyl-1H-indol-3-yl)vinyl]-4(3H)-quinazolinone] has a remaining activity at 10 µM [2] of 66.1%.
Cc1ccc(C=NNC(=O)COc2ccccc2Br)c(C)c1 [compound 5554099, 2-(2-bromophenoxy)-N'-(2,4-dimethylbenzylidene)acetohydrazide] showed a remaining activity at 10 µM [2] of 78.1%.
In the case of O=S(=O)(CCSc1nc2ccccc2o1)c1nc2ccccc2s1 [compound 7617239, 2-{[2-(1,3-benzothiazol-2-ylsulfonyl)ethyl]thio}-1,3-benzoxazole], the remaining activity at 10 µM [1] is reported as 103%.
For CC(C)c1nc(C(=O)N2CCC3(CCCN(CCc4ccccc4)C3)C2)cs1 (stereo not shown) [compound 51157786, 2-[(2-isopropyl-1,3-thiazol-4-yl)carbonyl]-7-(2-phenylethyl)-2,7-diazaspiro[4.5]decane], the remaining activity at 10 µM [1] was -5.48%.
Molecule COc1ccccc1NC(=O)C1c2ccccc2Oc2ccccc21 [compound 5867214, N-(2-methoxyphenyl)-9H-xanthene-9-carboxamide] has a remaining activity at 10 µM [2] of 99.2%.
With Oc1ccccc1C=Nc1ccc2cc3ccc(N=Cc4ccccc4O)cc3nc2c1 [compound 5267938, 2,2'-[3,6-acridinediylbis(nitrilomethylylidene)]diphenol] the “remaining DHODH activity (%) Average” value [2] was 98.57%.
With O=C(NN=Cc1cccc(Oc2ccccc2)c1)c1cccc([N+](=O)[O-])c1 [compound 5545710, 3-nitro-N'-(3-phenoxybenzylidene)benzohydrazide] the remaining activity at 10 µM [2] was 98%.
With Cc1ccccc1-c1noc(-c2ccc(N3CCC[C@H]3CO)nc2)n1 [compound 54631106, ((2S)-1-{5-[3-(2-methylphenyl)-1,2,4-oxadiazol-5-yl]-2-pyridinyl}-2-pyrrolidinyl)methanol] the “remaining DHODH activity (%) Average” value [1] was 5.94%.
With COc1ccc(NC(=S)NC(=O)c2ccc(C(C)(C)C)cc2)c(OC)c1 [compound 6513572, 4-tert-butyl-N-{[(2,4-dimethoxyphenyl)amino]carbonothioyl}benzamide] the remaining activity at 10 µM [2] was 97.8%.
COc1ccc(CC(C)NC2CCCc3c2[nH]c2ccc([N+](=O)[O-])cc32)cc1OC (stereo not shown) [compound 5781442, N-[2-(3,4-dimethoxyphenyl)-1-methylethyl]-6-nitro-2,3,4,9-tetrahydro-1H-carbazol-1-amine] was tested, and the remaining activity at 10 µM [2] was 78.3%.
With O=c1c(Cl)c(Cl)cnn1-c1ccc(Cl)c(C(F)(F)F)c1 [compound 5344759, 4,5-dichloro-2-[4-chloro-3-(trifluoromethyl)phenyl]-3(2H)-pyridazinone] the remaining activity at 10 µM [2] was 98.8%.
In the case of O=C1NC(c2ccc3ccccc3c2)Nc2sc3c(c21)CCCC3 (stereo not shown) [compound 5232020, 2-(2-naphthyl)-2,3,5,6,7,8-hexahydro[1]benzothieno[2,3-d]pyrimidin-4(1H)-one], the remaining activity at 10 µM [2] is reported as 43.5%.
With COC(=O)c1cccc(NC(=S)Nc2cc(Cl)ccc2OC)c1 [compound 7801595, methyl 3-({[(5-chloro-2-methoxyphenyl)amino]carbonothioyl}amino)benzoate] the remaining activity at 10 µM [1] was 100%.
For c1ccc(NN=C2CCc3ccccc3N2)cc1 [compound 5373649, 3,4-dihydro-2(1H)-quinolinone phenylhydrazone hydrochloride], the remaining activity at 10 µM [2] was 101%.
For CCOC(=O)C1=C(C)NC2=C(C(=O)CC(c3ccco3)C2)C1c1cccs1 (stereo not shown) [compound 7706732, ethyl 7-(2-furyl)-2-methyl-5-oxo-4-(2-thienyl)-1,4,5,6,7,8-hexahydro-3-quinolinecarboxylate], the “remaining DHODH activity (%) Average” value [1] was 95.89%.
Molecule Brc1ccc2[nH]c3c(c2c1)CCCC3NCCc1ccccc1 (stereo not shown) [compound 5265927, 6-bromo-N-(2-phenylethyl)-2,3,4,9-tetrahydro-1H-carbazol-1-amine hydrochloride] has a remaining activity at 10 µM [2] of 55.7%.
COc1cc(CNc2ccc(C)c(Cl)c2)cc(Cl)c1OC [compound 7574753, (3-chloro-4,5-dimethoxybenzyl)(3-chloro-4-methylphenyl)amine] was tested, and the remaining activity at 10 µM [1] was 79.9%.
O=C(NN=CC(Br)=Cc1ccccc1)c1n[nH]c2c1CCC2 [compound 5313702, N'-(2-bromo-3-phenyl-2-propen-1-ylidene)-1,4,5,6-tetrahydrocyclopenta[c]pyrazole-3-carbohydrazide] was tested, and the “remaining DHODH activity (%) Average” value [2] was 92.49%.
Oc1ccccc1-c1nc(C=Cc2cccs2)n[nH]1 [compound 7776857, 2-{3-[2-(2-thienyl)vinyl]-1H-1,2,4-triazol-5-yl}phenol] was tested, and the remaining activity at 10 µM [1] was 77.3%.
CSC1=NC(=Cc2ccc(OCc3ccccc3)cc2)C(=O)S1 [compound 6638197, 4-[4-(benzyloxy)benzylidene]-2-(methylthio)-1,3-thiazol-5(4H)-one] gave a remaining activity at 10 µM [2] of 74.9%.
O=c1oc2ccccc2cc1-c1cn2cc(Cl)ccc2n1 [compound 6623100, 3-(6-chloroimidazo[1,2-a]pyridin-2-yl)-2H-chromen-2-one] was tested, and the remaining activity at 10 µM [1] was 96.3%.
COc1ccccc1NC1=CC(=O)CC(c2ccccc2)C1 (stereo not shown) [compound 5220809, 3-[(2-methoxyphenyl)amino]-5-phenyl-2-cyclohexen-1-one] showed a remaining activity at 10 µM [2] of 100%.
O=C(Nc1cc(C(F)(F)F)cc(C(F)(F)F)c1)c1c(F)c(F)c(F)c(F)c1F [compound 7739721, N-[3,5-bis(trifluoromethyl)phenyl]-2,3,4,5,6-pentafluorobenzamide] showed a remaining activity at 10 µM [1] of 98.2%.
Cc1ccc2[nH]c3c(c2c1)CCCC3NC1CCCCC1 (stereo not shown) [compound 5303009, N-cyclohexyl-6-methyl-2,3,4,9-tetrahydro-1H-carbazol-1-amine] gave a remaining activity at 10 µM [2] of 12.6%.
For CC(C)Oc1ccc(C(=O)NC(=S)Nc2ccc(N3CCCCC3)cc2)cc1 [compound 6497060, 4-isopropoxy-N-({[4-(1-piperidinyl)phenyl]amino}carbonothioyl)benzamide], the remaining activity at 10 µM [2] was 101%.

Reference: PMC5856786, “A DHODH inhibitor increases p53 synthesis and enhances tumor cell killing by p53 degradation blockage” (Nature Communications, 2018)
